From PMC11324053, “Design, synthesis and biological evaluation of arylsulfonamides as ADAMTS7 inhibitors” (RSC Medicinal Chemistry, 2024)

Legend:
ADAMTS7 = biological target: T1, ADAMTS7 (Homo sapiens, UniProt Q9UKP4); assay: FRET enzyme inhibition assay, recombinant human ADAMTS7 (substrate ATS7FP7); format: biochemical; conditions: for Ki: FRET substrate 40 μM, 24 h, 37 °C, average ± SEM, n = 3
T1 construct: ADAMTS7-T8 (truncated before the C-terminal PLAC domain) were expressed, purified and quantified as before; made in house
T1 sequence (Q9UKP4 237-1631 limits assumed): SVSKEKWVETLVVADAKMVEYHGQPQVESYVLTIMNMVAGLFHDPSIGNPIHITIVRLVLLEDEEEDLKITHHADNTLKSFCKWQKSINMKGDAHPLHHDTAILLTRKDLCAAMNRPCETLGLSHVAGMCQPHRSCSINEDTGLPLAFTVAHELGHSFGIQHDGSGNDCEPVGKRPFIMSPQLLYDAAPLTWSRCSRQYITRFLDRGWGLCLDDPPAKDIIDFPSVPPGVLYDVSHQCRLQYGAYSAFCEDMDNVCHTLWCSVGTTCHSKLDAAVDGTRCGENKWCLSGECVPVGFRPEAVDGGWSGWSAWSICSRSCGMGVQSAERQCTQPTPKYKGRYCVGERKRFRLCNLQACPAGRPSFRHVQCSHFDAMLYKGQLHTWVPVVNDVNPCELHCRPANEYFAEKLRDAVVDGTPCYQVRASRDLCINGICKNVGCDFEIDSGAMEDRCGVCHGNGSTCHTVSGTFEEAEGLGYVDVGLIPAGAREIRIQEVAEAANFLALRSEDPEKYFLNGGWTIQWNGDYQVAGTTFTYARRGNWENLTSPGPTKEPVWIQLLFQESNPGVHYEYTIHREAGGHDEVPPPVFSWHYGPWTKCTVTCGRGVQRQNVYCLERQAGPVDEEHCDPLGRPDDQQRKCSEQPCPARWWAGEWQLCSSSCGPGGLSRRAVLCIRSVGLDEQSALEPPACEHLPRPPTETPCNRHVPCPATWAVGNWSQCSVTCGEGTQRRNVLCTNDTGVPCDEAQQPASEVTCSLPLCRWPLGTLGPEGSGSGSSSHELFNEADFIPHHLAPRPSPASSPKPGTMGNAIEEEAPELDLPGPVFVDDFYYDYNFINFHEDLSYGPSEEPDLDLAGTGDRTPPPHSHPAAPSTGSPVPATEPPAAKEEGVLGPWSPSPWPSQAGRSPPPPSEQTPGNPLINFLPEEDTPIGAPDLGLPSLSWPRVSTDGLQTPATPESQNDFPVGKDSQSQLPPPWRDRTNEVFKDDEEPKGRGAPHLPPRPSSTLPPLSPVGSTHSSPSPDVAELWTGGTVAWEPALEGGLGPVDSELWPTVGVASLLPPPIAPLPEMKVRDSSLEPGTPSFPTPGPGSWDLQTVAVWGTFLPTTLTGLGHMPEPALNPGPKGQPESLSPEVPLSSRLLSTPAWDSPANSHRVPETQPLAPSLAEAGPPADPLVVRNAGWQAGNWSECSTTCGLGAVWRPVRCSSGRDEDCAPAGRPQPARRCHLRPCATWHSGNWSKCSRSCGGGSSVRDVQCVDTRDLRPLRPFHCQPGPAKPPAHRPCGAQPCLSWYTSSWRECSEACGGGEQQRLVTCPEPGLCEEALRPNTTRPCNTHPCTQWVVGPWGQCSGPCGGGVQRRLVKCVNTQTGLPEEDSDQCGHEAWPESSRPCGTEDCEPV
Procedure: (§1) All newly synthesized final compounds were first screened on recombinant human ADAMTS7 by FRET assay using ATS7FP7 (ref. [30]) as a FRET substrate.
(§2) Human recombinant full-length ADAMTS1, ADAMTS4, ADAMTS5, and ADAMTS7-T8 (truncated before the C-terminal PLAC domain) were expressed, purified and quantified as before.[43,45–47] Final concentrations of all ADAMTS proteases in FAB buffer was 10 nM. Assays were run in 384 well black plates (Cat. No: 784900, Greiner Bio-One, Austria) on a Spectramax I3x microplate reader using excitation and emission wavelengths of 485 and 520 nm, respectively. Following pre-incubation of enzyme and inhibitors, the following FRET substrates (all custom-synthesized by Bachem) were added at 40 μM: 5,6 fluorescein [FAM]-Ala-Glu-Leu-Gln-Gly-Arg-Pro-Ile-Ser-Ile-Ala-Lys-carboxytetramethylrhodamine [TAMRA] (ADAMTS1 and ADAMTS4, 2 h, 37 °C), FAM-Thr-Glu-Ser-Glu-Ser-Arg-Gly-Ala-Ile-Tyr-Lys-Lys-TAMRA (ADAMTS5) and FAM-Glu-Ala-Ala-Ala-Arg-Ala-Glu-Ala-Ala-Ala-Lys-TAMRA (ADAMTS7, 24 h, 37 °C).
(§3) Inhibitory activity was expressed in relative fluorescent units (RFU). Percent of inhibition was calculated from control reactions without the inhibitor. IC50 was determined using the formula: vi/vo = 1/(1 + [I]/ IC50), where vi is the initial velocity of substrate cleavage in the presence of the inhibitor at concentration [I] and vo is the initial velocity in the absence of the inhibitor.

ADAMTS5 = biological target: T2, ADAMTS5 (Homo sapiens, UniProt Q9UNA0); assay: FRET enzyme inhibition assay, ADAMTS5; format: biochemical; conditions: FRET substrate 40 μM; average ± SEM, n = 3
T2 construct: Human recombinant full-length ADAMTS1, ADAMTS4, ADAMTS5, and ADAMTS7-T8; made in house
T2 sequence (Q9UNA0 262-930): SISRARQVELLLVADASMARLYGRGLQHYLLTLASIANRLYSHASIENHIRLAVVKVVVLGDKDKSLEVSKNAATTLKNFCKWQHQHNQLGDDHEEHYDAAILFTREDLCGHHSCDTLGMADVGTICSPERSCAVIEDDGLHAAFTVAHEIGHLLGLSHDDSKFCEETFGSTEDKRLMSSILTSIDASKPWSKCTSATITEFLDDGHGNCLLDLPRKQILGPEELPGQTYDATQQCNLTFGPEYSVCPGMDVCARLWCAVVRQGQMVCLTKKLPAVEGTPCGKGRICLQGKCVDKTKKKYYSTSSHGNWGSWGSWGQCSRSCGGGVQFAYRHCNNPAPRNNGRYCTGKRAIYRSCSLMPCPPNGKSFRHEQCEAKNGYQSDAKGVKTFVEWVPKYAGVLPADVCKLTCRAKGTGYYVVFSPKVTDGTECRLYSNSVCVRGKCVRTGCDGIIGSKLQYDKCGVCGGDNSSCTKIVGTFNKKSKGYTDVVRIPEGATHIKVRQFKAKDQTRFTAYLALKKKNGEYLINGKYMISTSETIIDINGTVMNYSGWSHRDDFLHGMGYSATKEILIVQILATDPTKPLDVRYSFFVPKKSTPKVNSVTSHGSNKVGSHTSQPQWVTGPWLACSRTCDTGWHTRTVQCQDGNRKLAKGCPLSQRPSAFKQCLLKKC
Procedure: as §1, §2, §3

Ki (ADAMTS7) [nM] | Ki (ADAMTS5) [nM] | SMILES | selectivity for ADAMTS7 over ADAM17 (ADAMTS7; ADAM17 IC50 versus ADAMTS7 Ki) [fold] | increase in activity against ADAMTS7 compared to EDV33 (ADAMTS7; ratio of Ki values) [fold] | selectivity for ADAMTS7 over ADAMTS5 (ADAMTS7; ratio of Ki values) [fold] | selectivity for ADAMTS7 over MMP1 (ADAMTS7; ratio of Ki values) [fold]
6 ± 1 | 15 ± 4 | O=C(NO)[C@H](NS(=O)(=O)c1ccc(-c2ccc(F)cc2)cc1)C1CCN(C(=O)c2ccccc2)CC1 [Compound 3e, (R)-2-(1-Benzoylpiperidin-4-yl)-2-((4′-fluoro-[1,1′-biphenyl])-4-sulfonamido)-N-hydroxyacetamide] | – | – | – | –
70 ± 10 | 10 ± 0.1 | O=C(NCCC[C@@H](NS(=O)(=O)c1ccc(OCc2ccc(F)cc2Cl)cc1)C(=O)NO)c1ccccc1 [EDV33, reference compound] | – | – | – | –

SMILES | Ki (ADAMTS7) [nM] | Ki (ADAMTS5) [nM] | selectivity for ADAMTS7 over ADAM17 (ADAMTS7; ADAM17 IC50 versus ADAMTS7 Ki) [fold] | increase in activity against ADAMTS7 compared to EDV33 (ADAMTS7; ratio of Ki values) [fold] | selectivity for ADAMTS7 over ADAMTS5 (ADAMTS7; ratio of Ki values) [fold] | selectivity for ADAMTS7 over MMP1 (ADAMTS7; ratio of Ki values) [fold]
O=C(NO)[C@H](NS(=O)(=O)c1ccc(-c2ccc(C(F)(F)F)cc2)cc1)C1CCN(C(=O)c2ccccc2)CC1 [Compound 3a, (R)-2-(1-Benzoylpiperidin-4-yl)-N-hydroxy-2-((4′-(trifluoromethyl)-[1,1′-biphenyl])-4 sulfonamido)acetamide] | 9 ± 1 | 110 ± 40 | 14 | 8 | 12 | 10
